# Literature values as cited in patent US20040121407A1, “Regulation of the growth hormone/IGF-1 axis” (ELIXIR PHARMACEUTICALS, INC., priority 2002, published 2004).
# Assays:
# [1] = tested on: GH secretion
# [2] = tested on: IGF-1 levels; conditions: administered subcutaneously
# [3] = target: human SST2 (Homo sapiens, UniProt P30874)
# human SST2, sequence (P30874 whole entry): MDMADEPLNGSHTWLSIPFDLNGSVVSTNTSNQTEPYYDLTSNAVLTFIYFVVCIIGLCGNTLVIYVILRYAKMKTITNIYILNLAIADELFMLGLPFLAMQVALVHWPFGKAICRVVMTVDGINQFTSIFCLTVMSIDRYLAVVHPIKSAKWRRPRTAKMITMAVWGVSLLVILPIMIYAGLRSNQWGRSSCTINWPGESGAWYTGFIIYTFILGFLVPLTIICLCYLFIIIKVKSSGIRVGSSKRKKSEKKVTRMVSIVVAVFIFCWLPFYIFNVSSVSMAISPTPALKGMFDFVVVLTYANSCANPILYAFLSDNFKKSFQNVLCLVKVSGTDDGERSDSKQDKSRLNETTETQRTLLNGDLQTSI
compound,measurement,setting,value
"[N-acetyl-Tyr^1,D-Arg^2] GHRH^1-29NH2 [standard GHRH antagonist]",human GH secretory response to exogenous GHRH,[1]; exogenous GHRH,inhibits
same,spontaneous GH secretion,[1]; in vivo,lowers
"Pegvisomant: modified human GH in which nine amino acids have been replaced, with polyethylene glycol polymers; GH receptor antagonist",IGF-1 levels,[2],dose dependent reduction
"CC(C)(C)OC(=O)[C@H](CCCCN)NC(=O)[C@@H](Cc1c[nH]c2ccccc12)NC(=O)N1CCC(n2c(=O)[nH]c3ccccc32)CC1 [L-054,522]",selectivity,[3],highly selective
